# The source made the active and inactive calls. The calls are words filed in the database; no cut-off is given here.
# Tested on: Mycobacterium tuberculosis
# Assay: Antitubercular activity against Mycobacterium tuberculosis H37Rv at 6.25 ug/mL
# Format: functional, organism-based
row,Compound,Activity
1,C=C1CC(=O)/C=C(/C)C[C@@H]2OC(=O)[C@]3(O[C@@H]23)[C@H]2C[C@@H]([C@@]3(C)CO3)[C@H](O)[C@]1(O)O2,inactive
2,C=C(C)[C@H](CCC1=C[C@H](CC(C)=O)OC1=O)[C@H](O)c1oc(C(C)=O)cc1C,inactive
